According to US11980621B2, “Gonadotropin-releasing hormone antagonist dosing regimens for the treatment of endometriosis” (ObsEva S.A., priority 2017, dated 2024):

Assays:
human GnRH receptor = biological target: T1, human GnRH receptor (Homo sapiens, UniProt P30968); assay: affinity for human GnRH receptor; type: binding; details: type of constant (Ki/IC50/Kd) not stated
T1 sequence (P30968 1-328): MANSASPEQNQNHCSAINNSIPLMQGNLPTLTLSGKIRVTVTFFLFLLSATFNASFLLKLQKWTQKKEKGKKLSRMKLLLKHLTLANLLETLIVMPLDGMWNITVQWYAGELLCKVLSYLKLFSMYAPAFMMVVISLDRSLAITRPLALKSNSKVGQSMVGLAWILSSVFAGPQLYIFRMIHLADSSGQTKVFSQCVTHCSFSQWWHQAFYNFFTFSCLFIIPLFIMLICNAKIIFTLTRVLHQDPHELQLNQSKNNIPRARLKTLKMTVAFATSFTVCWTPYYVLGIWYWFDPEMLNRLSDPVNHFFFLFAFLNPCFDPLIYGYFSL

[1] = test system: various animal models of endometriosis; assay: animal models of endometriosis; type: in vivo
Japanese women = assay: daily dosing in Japanese women (LH, E2, endometriosis-associated pain, safety); type: in vivo, human; details: doses between 50 and 200 mg daily
[2] = test system: human female patients having endometriosis; assay: 12-week oral treatment of endometriosis patients grouped by initial serum AMH; serum E2 concentration; type: in vivo
Procedure: In order to investigate the effects of GnRH antagonists, such as compound (I), (II), and pharmaceutically acceptable salts thereof, such as the choline salt thereof (compound (III)), on endometriosis patients presenting with distinct initial values of serum AMH, a series of experiments was conducted in which patients were divided into multiple treatment arms and orally administered either compound (III) or a placebo. Specifically, a series of n=327 human female patients having endometriosis were divided into five groups, and received either placebo, 50 mg/day of compound (III), 75 mg/day of compound (III), 100 mg/day of compound (III), or 200 mg/day of compound (III) by oral delivery. Treatment with the placebo or compound (III) at the doses specified above occurred continuously over a period of 12 weeks. At various time points throughout these experiments, patients were evaluated for their serum E2 concentration. As described herein, an objective of endometriosis therapy utilizing a GnRH antagonist is to suppress serum E2 values to within a range of from about 20 pg/ml to about 50 pg/ml or lower. Alleviation of endometriosis symptoms correlates with a reduction of serum E2, and achieving serum E2 levels that are either within this range or below are indicators of successful endometriosis treatment. To analyze the response of patients presenting with different initial AMH serum concentrations, patients were further divided into groups based on initial AMH serum level. These groups included patients having initial AMH serum concentrations of less than 15 pM, from 15 pM to 35 pM, or greater than 35 pM prior to commencing treatment with the GnRH antagonist.

COc1cc(F)c(-n2c(=O)[nH]c3csc(C(=O)O)c3c2=O)cc1OCc1c(OC)ccc(F)c1F [Compound (II), 3-[2-fluoro-5-(2,3-difluoro-6-methoxybenzyloxy)4-methoxyphenyl]-2,4-dioxo-1,2,3,4-tetrahydrothieno[3,4d]pyrimidine-5-carboxylic acid]
affinity for human GnRH receptor (human GnRH receptor): 27.4 nM | E2 secretion [1]: significantly suppressing | serum LH concentration [1]: significantly suppressing | size of endometriotic lesions [1]: significantly suppressing | endometriosis-associated pain (Japanese women): significantly reduce | luteinizing hormone (LH) (Japanese women): suppress | safety and tolerability profile (Japanese women): good safety and tolerability profile | β17-estradiol (E2) (Japanese women): suppress

COc1cc(F)c(-n2c(=O)[nH]c3csc(C(=O)O)c3c2=O)cc1OCc1c(OC)ccc(F)c1F [compound (III), choline 3-[2-fluoro-5-(2,3-difluoro-6-methoxybenzyloxy)4-methoxyphenyl]-2,4-dioxo-1,2,3,4-tetrahydrothieno[3,4d]pyrimidine-5-carboxylate]
serum E2 concentration ([2]; 50 mg/day, 12-week treatment period, initial AMH serum concentration less than 15 pM (FIG. 1)): achieve a reduction in serum E2 concentration | suppression of serum E2 concentration ([2]; higher dosages, such as 100 mg/day and 200 mg/day, patients with higher initial serum AMH levels (FIG. 3)): generally required for suppression of serum E2 concentration | serum E2 ([2]; various daily doses, oral, 12 weeks, initial serum AMH from 15 pM to 35 pM (FIG. 2)): dose-dependent suppression | serum E2 ([2]; various daily doses, oral, 12 weeks, initial serum AMH greater than 35 pM (FIG. 3)): dose-dependent suppression | serum β17-estradiol (E2) ([2]; various daily doses, oral, 12 weeks, initial serum AMH less than 15 pM (FIG. 1)): dose-dependent suppression
